Test results published in US7465753B2, “Glycoside-containing liposome” (Otsuka Pharmaceutical Co., Ltd., priority 2003, dated 2008).
Read-outs that look alike come from different tables or passages of the source.

What was measured:
colon26 wild [1] = assay: Cell proliferation inhibitory effect, MTT assay, colon26 wild; assay type: cell-based; details: glycoside employed alone, 37° C. for three days
Description: A cultured cancer cell line (colon26 wild) was inoculated into a 96-well plate (1×10^4 cells/100 μL/well), and subsequently a cholestanol glycoside (GlcNAcβ1,4GalChol, Fucα1,3GalChol, GalβChol, or Chol) or each type of the cholestanol glycoside liposomes formed in Example 1 was added to the 96-well plate, followed by incubation at 37° C. for three days. Thereafter, the MTT assay was performed, and the number of live cells was determined. The cell proliferation inhibition rate was obtained by use of the following formula. Cell proliferation inhibition rate(CPI rate)(%)=(1−OD of treated cells/OD of non-treated cells)×100

colon26 wild [2] = details: glycoside alone; conventionally shown; cited from earlier work

SMILES	cell proliferation inhibitory effect (colon26 wild [1])	cell proliferation inhibitory effect (colon26 wild [2])
CC(C)CCC[C@@H](C)[C@H]1CC[C@H]2[C@@H]3CC[C@H]4C[C@@H](O[C@@H]5O[C@H](CO)[C@H](O)[C@H](O[C@@H]6O[C@@H](C)[C@@H](O)[C@@H](O)[C@@H]6O)[C@H]5O)CC[C@]4(C)[C@H]3CC[C@]12C [Fucα1,3GalChol, 3-β-cholestanyl 3-O-(α-L-fucopyranosyl)-β-D-galactopyranoside]	scarcely exhibits cell proliferation inhibitory effect	
CC(=O)N[C@H]1[C@H](O[C@@H]2[C@H](O)[C@@H](O)[C@H](O[C@H]3CC[C@@]4(C)[C@@H](CC[C@@H]5[C@@H]4CC[C@]4(C)[C@@H]([C@H](C)CCCC(C)C)CC[C@@H]54)C3)O[C@@H]2CO)O[C@H](CO)[C@@H](O)[C@@H]1O [GlcNAcβ1,4GalChol, 3-β-cholestanyl 4-O-(2-acetamido-2-deoxy-β-D-glucopyranosyl)-β-D-galactopyranoside]		has conventionally been shown to have cell proliferation inhibitory effect
